Test [1] concerns the target Regulator of G-protein signaling 19 (Homo sapiens, UniProt P49795). Nature of the test: Inhibitory Assay: FCPIA Characterization of RGS Inhibitory Activity: CCG-50014 (FIG. 1) was originally identified as a potential inhibitor of RGS8 and RGS16 in a polyplex high throughput screen to identify inhibitors of the RGS-Gα interaction [4]. This activity was confirmed by analyzing the effect of CCG-50014 on several different RGS proteins with freshly reordered compound using multiplexed ….

Test [2] addresses Regulator of G-protein signaling 16 (Homo sapiens, UniProt O15492). Described as above.

SMILES strings stand for the structures.

Regulator of G-protein signaling 16, sequence (O15492 whole entry, looked up, change not shown): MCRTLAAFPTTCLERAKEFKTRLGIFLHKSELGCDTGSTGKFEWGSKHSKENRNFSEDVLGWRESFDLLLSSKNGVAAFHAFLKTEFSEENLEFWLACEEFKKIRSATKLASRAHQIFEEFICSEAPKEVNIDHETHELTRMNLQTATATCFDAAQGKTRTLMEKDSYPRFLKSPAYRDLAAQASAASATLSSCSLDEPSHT
Regulator of G-protein signaling 19, sequence (P49795 whole entry, looked up, stated change not applied): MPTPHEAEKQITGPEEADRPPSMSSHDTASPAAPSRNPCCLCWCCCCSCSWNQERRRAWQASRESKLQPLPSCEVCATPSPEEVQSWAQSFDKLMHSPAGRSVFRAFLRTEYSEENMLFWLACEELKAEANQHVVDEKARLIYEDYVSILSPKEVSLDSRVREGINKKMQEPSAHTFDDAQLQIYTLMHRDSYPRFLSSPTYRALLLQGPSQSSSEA

By IC50 is commonly meant the point on the concentration scale where inhibition reaches its midpoint. `Cc1ccc(-n2sc(=O)n(Cc3ccc(F)cc3)c2=O)cc1`: the half-maximal inhibitory concentration (IC50) came out at 0.12 µM in test [1] and 3.5 µM in test [2].

The values above are taken from ChEMBL document CHEMBL3639039, “Small molecule inhibitors of RGS proteins” (2014).
